# Data as given in paper PMC9646789, “Discovery of potential natural dihydroorotate dehydrogenase inhibitors and their synergism with brequinar via integrated molecular docking, dynamic simulations and in vitro approach” (Scientific Reports, 2022).
# pIC50: −log10 of the molar value.
# Target: T1, human dihydroorotate dehydrogenase (hDHODH) (Homo sapiens, UniProt Q02127)
# T1 construct: gene DHODH
# Test: biochemical
# T1 sequence (Q02127 whole entry): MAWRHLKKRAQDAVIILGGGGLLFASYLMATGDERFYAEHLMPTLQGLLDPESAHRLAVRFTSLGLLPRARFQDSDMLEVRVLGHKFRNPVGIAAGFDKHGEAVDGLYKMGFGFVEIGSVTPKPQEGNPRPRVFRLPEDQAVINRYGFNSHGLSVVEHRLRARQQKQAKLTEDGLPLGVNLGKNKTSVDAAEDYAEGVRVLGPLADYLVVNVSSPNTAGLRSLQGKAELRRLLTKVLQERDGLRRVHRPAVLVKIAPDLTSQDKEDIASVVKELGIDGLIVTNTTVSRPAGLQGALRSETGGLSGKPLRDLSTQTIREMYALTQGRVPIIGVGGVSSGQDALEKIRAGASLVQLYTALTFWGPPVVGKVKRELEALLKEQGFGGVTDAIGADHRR
row,pIC50,Compound
1,6.92,COc1cc(C2Oc3cc([C@H]4Oc5cc(O)cc(O)c5C(=O)[C@@H]4O)ccc3OC2CO)ccc1O (some centres unmarked) [Silibinin]
2,6.78,COc1cc([C@H]2Oc3c(O)cc([C@H]4Oc5cc(O)cc(O)c5C(=O)[C@@H]4O)cc3[C@@H]2CO)ccc1O [Silychristin B]
